Values joined by “and” are separate entries in the source; they are usually repeats but may differ in a detail not shown here. Equal entries are not always repeated. Inconclusive results and toxic doses are left out.
Test system: L1210 leukemia ip in BDF1 mice, survival T/C
Test: NCI In Vivo Anticancer Drug Screen. Data for tumor model L1210 Leukemia (intraperitoneal) in B6D2F1 (BDF1) mice
Details: endpoint: mean survival time, higher = longer survival
In short: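 Ratio derived from survival: compound-dosed mice over vehicle-dosed mice, all bearing a transplantable tumor.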

[1] = dose: 100.0 mg/kg/injection, schedule: Q01DX001 (ip), vehicle: carboxymethylcellulose (CMC)
[2] = dose: 200.0 mg/kg/injection, schedule: Q01DX001 (ip), vehicle: carboxymethylcellulose (CMC)

CCOC(=O)C(C=O)(NC(=O)c1ccccc1)OCC (stereo not drawn)
T/C (dose: 100.0 mg/kg/injection, schedule: Q04DX003 (ip), vehicle: saline with Tween-80): 94 % of control
T/C (dose: 200.0 mg/kg/injection, schedule: Q04DX003 (ip), vehicle: saline with Tween-80): 101 % of control
T/C (dose: 400.0 mg/kg/injection, schedule: Q04DX003 (ip), vehicle: saline with Tween-80): 105 % of control

CCOC(=O)N1CCN(Cn2cc3c4c(cccc42)C2CC(C(=O)NC(C)C)CN(C)C2C3)CC1 (stereo not drawn)
T/C (dose: 6.25 mg/kg/injection, schedule: Q04DX003 (ip), vehicle: saline): 88 % of control
T/C (dose: 12.5 mg/kg/injection, schedule: Q04DX003 (ip), vehicle: saline): 97 % of control
T/C (dose: 25.0 mg/kg/injection, schedule: Q04DX003 (ip), vehicle: saline): 100 % of control
T/C (dose: 50.0 mg/kg/injection, schedule: Q04DX003 (ip), vehicle: saline): 94 % of control
T/C (dose: 100.0 mg/kg/injection, schedule: Q04DX003 (ip), vehicle: saline): 97 % of control

Cc1ccc(S(=O)(=O)N2CN(S(=O)(=O)c3ccc(C)cc3)CN(S(=O)(=O)c3ccc(C)cc3)C2)cc1
T/C (dose: 100.0 mg/kg/injection, schedule: Q04DX002 (ip), vehicle: saline with Tween-80): 94 % of control
T/C (dose: 200.0 mg/kg/injection, schedule: Q04DX002 (ip), vehicle: saline with Tween-80): 91 % of control
T/C (dose: 400.0 mg/kg/injection, schedule: Q04DX002 (ip), vehicle: saline with Tween-80): 91 % of control

O=C(Nc1ccccc1-c1ccccc1)c1ccc(Cl)cc1Cl
T/C (dose: 100.0 mg/kg/injection, schedule: Q04DX002 (ip), vehicle: Klucel (hydroxypropylcellulose) (HPC)): 104 % of control
T/C (dose: 200.0 mg/kg/injection, schedule: Q04DX002 (ip), vehicle: Klucel (hydroxypropylcellulose) (HPC)): 93 % of control
T/C (dose: 400.0 mg/kg/injection, schedule: Q04DX002 (ip), vehicle: Klucel (hydroxypropylcellulose) (HPC)): 101 % of control

COC(=O)C(CCSC)NC(=O)C(C)NC(=O)c1cnc2ccccc2n1 (stereo not drawn)
T/C [1]: 91 % of control
T/C [2]: 94 % of control
T/C (dose: 400.0 mg/kg/injection, schedule: Q01DX001 (ip), vehicle: carboxymethylcellulose (CMC)): 98 % of control

COc1cc(NC(=O)CN(CCCl)CCCl)cc(OC)c1OC
T/C (dose: 13.3 mg/kg/injection, schedule: Q01DX009 (ip), vehicle: carboxymethylcellulose (CMC)): 116 % of control
T/C (dose: 20.0 mg/kg/injection, schedule: Q01DX009 (ip), vehicle: carboxymethylcellulose (CMC)): 100 % of control
T/C (dose: 25.0 mg/kg/injection, schedule: Q01DX001 (ip), vehicle: carboxymethylcellulose (CMC)): 122 % of control
T/C (dose: 30.0 mg/kg/injection, schedule: Q01DX009 (ip), vehicle: carboxymethylcellulose (CMC)): 124 % of control
T/C (dose: 44.4 mg/kg/injection, schedule: Q01DX009 (ip), vehicle: carboxymethylcellulose (CMC)): 123 % of control
T/C (dose: 45.0 mg/kg/injection, schedule: Q01DX009 (ip), vehicle: carboxymethylcellulose (CMC)): 107 % of control
T/C (dose: 50.0 mg/kg/injection, schedule: Q01DX001 (ip), vehicle: carboxymethylcellulose (CMC)): 116 % of control
T/C (dose: 66.6 mg/kg/injection, schedule: Q01DX009 (ip), vehicle: carboxymethylcellulose (CMC)): 110 % of control
T/C (dose: 89.0 mg/kg/injection, schedule: Q01DX001 (ip), vehicle: carboxymethylcellulose (CMC)): 112 % of control
T/C (dose: 89.0 mg/kg/injection, schedule: Q01DX001 (ip), vehicle: saline): 118 % of control
T/C [1]: 119 % of control
T/C (dose: 100.0 mg/kg/injection, schedule: Q01DX009 (ip), vehicle: carboxymethylcellulose (CMC)): 86 % of control
T/C (dose: 100.0 mg/kg/injection, schedule: Q01DX009 (ip), vehicle: saline): 170 % of control
T/C (dose: 133.0 mg/kg/injection, schedule: Q01DX001 (ip), vehicle: carboxymethylcellulose (CMC)): 102 % of control and 115 % of control
T/C (dose: 150.0 mg/kg/injection, schedule: Q01DX009 (ip), vehicle: carboxymethylcellulose (CMC)): 88 % of control
T/C (dose: 150.0 mg/kg/injection, schedule: Q01DX009 (ip), vehicle: saline): 90 % of control
T/C [2]: 114 % of control and 120 % of control
T/C (dose: 300.0 mg/kg/injection, schedule: Q01DX001 (ip), vehicle: carboxymethylcellulose (CMC)): 107 % of control

COC(=O)C1C2CCC1(C)C(O)C2 (stereo not drawn)
T/C (dose: 75.0 mg/kg/injection, schedule: Q01DX009 (ip), vehicle: saline with Tween-80): 96 % of control
T/C (dose: 150.0 mg/kg/injection, schedule: Q01DX009 (ip), vehicle: saline with Tween-80): 107 % of control
T/C (dose: 300.0 mg/kg/injection, schedule: Q01DX009 (ip), vehicle: saline with Tween-80): 100 % of control

— PubChem BioAssay AID248 (DTP/NCI, 2004)
